# Columns and labels:
# [1] = tested on: healthy volunteers; assay: Plasma pancreatic polypeptide (PP) after s.c. injection (radioimmunoassay); assay type: in vivo, human; details: fasting healthy volunteers; s.c. GLP‐1 1.5 nmol/kg; due to excursions in a subset of participants
# From the text: (§1) Intravenous access was then established. […] Baseline measurements were made twice during the resting period.
# [2] = tested on: healthy volunteers; assay: Serum insulin and C‐peptide after s.c. injection (ECLIA); assay type: in vivo, human; details: fasting healthy volunteers n = 8; for Effect on insulin and C‐peptide (in words): s.c. 1.5 nmol/kg, 0–120 min
# Procedure: Plasma insulin and C‐peptide levels were measured on a Cobas® 8000, e602 module (Roche Diagnostics GmbH, Mannheim) using, respectively, Cobas Insulin reagents and Cobas Insulin Calibrator, and Cobas C‐Peptide reagents and Cobas C‐Peptide Calibrator. The Cobas module employs a sandwich electro‐chemiluminescense immunoassay (ECLIA).
# as §1
# Analyses of normally distributed data were conducted by two‐way ANOVA followed by Tukey post hoc testing if the ANOVA indicated significant differences between the study days.
# [3] = tested on: healthy volunteers; assay: Cardiovascular measurements by task force monitor (heart rate, blood pressure, cardiac output, stroke volume); assay type: in vivo, human; details: for Effect on heart rate (in words): s.c. GLP‐1 and GLP‐1 9–36amide 1.5 nmol/kg, exenatide 10 μg, 0–120 min, two‐way ANOVA, Tukey post hoc
# Procedure: Cardiac parameters were continuously measured from time −15 to 120 min. The task force monitor (TFM; CN Systems, Graz, Austria) continuously measures the heart rate, blood pressure (by finger plethysmography), cardiac output (by impedance cardiography), and calculates stroke volume (SV). The continuous, beat‐to‐beat measuring of blood pressure was supplemented with the conventional noninvasive oscillometric blood pressure measurement. […] This was done to eliminate brief or short‐lasting changes in cardiac parameters due to accidental movement of the volunteer or slight disturbance during scanning.
# as §1
# [4] = tested on: healthy volunteers; assay: Plasma glucose after s.c. injection (glucose oxidase method); assay type: in vivo, human
# Procedure: Plasma glucose was measured by the glucose oxidase method using a glucose analyzer (Yellow Springs Instrument, YSI Inc., Yellow Springs, OH).
# as §1
# [5] = tested on: healthy volunteers; assay: Doppler ultrasound blood flow in superior mesenteric artery, celiac trunk and renal artery (RI, TAMV); assay type: in vivo, human; details: healthy volunteers n = 8, s.c. GLP‐1 and GLP‐1 9–36amide 1.5 nmol/kg, exenatide 10 μg, 0–120 min
# From the text: as §1
# [6] = Plasma concentrations of the test substances by radioimmunoassay after s.c. injection; details: eight healthy volunteers
# [7] = healthy volunteers n = 8, supine
Time at which GLP‐1 9–36amide concentrations reached near basal levels ([6]; 1.5 nmol/kg GLP‐1 9–36amide s.c.) [min],"Plasma concentration of the metabolite GLP‐1 9–36amide (total GLP‐1 assay), peak ([6]; 1.5 nmol/kg GLP‐1 9–36amide s.c., at 30 min, radioimmunoassay, mean)",Compound,Effect on plasma pancreatic polypeptide (PP) (in words) [1],Effect on insulin and C‐peptide (in words) [2],Time until which C‐peptide levels remained elevated ([2]; s.c. GLP‐1 1.5 nmol/kg) [min],"Time of insulin peak ([2]; s.c. GLP‐1 1.5 nmol/kg, exenatide 10 μg (for exenatide insulin and C‐peptide)) [min]","Time of peak heart rate increase ([3]; healthy volunteers n = 8, supine, s.c. GLP‐1 1.5 nmol/kg) [min]","Maximum increase in heart rate ([3]; healthy volunteers n = 8, supine, s.c. GLP‐1 1.5 nmol/kg, peaking at 30 min)","Effect on heart rate (in words) [3, 7]","Effect on cardiac output (in words) ([3]; healthy volunteers n = 8, impedance cardiography, 120 min period, on the placebo day decrease by about 1 L/min)","Effect on stroke volume (in words) ([3]; healthy volunteers n = 8, s.c. GLP‐1 1.5 nmol/kg, lower values at 15 and 30 min)","Plasma glucose nadir ([4]; fasting healthy volunteers n = 8, s.c. 1.5 nmol/kg, from around 5 mmol/L, nadir at 30 min, mean) [mmol/L]","Time of plasma glucose nadir ([4]; fasting healthy volunteers n = 8, s.c. GLP‐1 1.5 nmol/kg, exenatide 10 μg) [min]",Changes in blood flow parameters in the mesenteric or renal arteries [5],Time at which intact GLP‐1 reached basal levels ([6]; 1.5 nmol/kg GLP‐1 s.c.),"Total plasma GLP‐1 concentration, peak mean value on the GLP‐1 day ([6]; 1.5 nmol/kg GLP‐1 s.c., total = GLP‐1 7–36amide + 9–36amide, reached within 15 min, still elevated at 120 min, radioimmunoassay, mean)","Time of peak or plateau plasma concentration of the injected peptide (exendin‐4 or total GLP‐1 assay) ([6]; s.c., exenatide 10 μg, GLP‐1 and GLP‐1 9–36amide 1.5 nmol/kg) [min]","Effect on plasma glucose (in words) ([4]; fasting healthy volunteers n = 8, s.c. exenatide 10 μg, GLP‐1 9–36amide 1.5 nmol/kg, 0–120 min)"
,,"CC[C@H](C)[C@H](NC(=O)[C@H](Cc1ccccc1)NC(=O)[C@H](CCC(=O)O)NC(=O)[C@H](CCCCN)NC(=O)[C@H](C)NC(=O)[C@H](C)NC(=O)[C@H](CCC(N)=O)NC(=O)CNC(=O)[C@H](CCC(=O)O)NC(=O)[C@H](CC(C)C)NC(=O)[C@H](Cc1ccc(O)cc1)NC(=O)[C@H](CO)NC(=O)[C@H](CO)NC(=O)[C@@H](NC(=O)[C@H](CC(=O)O)NC(=O)[C@H](CO)NC(=O)[C@@H](NC(=O)[C@H](Cc1ccccc1)NC(=O)[C@@H](NC(=O)CNC(=O)[C@H](CCC(=O)O)NC(=O)[C@H](C)NC(=O)[C@@H](N)Cc1c[nH]cn1)[C@@H](C)O)[C@@H](C)O)C(C)C)C(=O)N[C@@H](C)C(=O)N[C@@H](Cc1c[nH]c2ccccc12)C(=O)N[C@@H](CC(C)C)C(=O)N[C@H](C(=O)N[C@@H](CCCCN)C(=O)NCC(=O)N[C@@H](CCCNC(=N)N)C(N)=O)C(C)C [GLP‐1, glucagon‐like peptide‐1]",mean PP levels rose late,caused a rise in insulin,60,15,30,about 14 beats per min,significantly increased heart rate,tended to rise,appeared to fall more,3.5,30,"Neither GLP‐1, GLP‐1_9–36 amide, exenatide nor saline elicited any changes in blood flow parameters",around 90 min,around 300 pmol/L,≤ 15,
120,about 290 pmol/L,GLP‐1_9–36amide,,no significant changes,,,,,remained stable,,,,,"Neither GLP‐1, GLP‐1_9–36 amide, exenatide nor saline elicited any changes in blood flow parameters",,,,"Neither saline nor the metabolite, GLP‐1_9–36amide influenced plasma glucose levels"
